Laboratory results published in publication PMC4076210, “Discovery of Novel AKT Inhibitors with Enhanced Anti-Tumor Effects in Combination with the MEK Inhibitor” (PLoS ONE, 2014).
Where two headings read alike, the source gives them in different places.

What was measured:
Test in all cases: Kinase panel
Type in all cases: biochemical
TSSK2(h) = biological target: T1, TSSK2(h) (Homo sapiens, UniProt Q96PF2)
T1 construct: purchased Millipore KinaseProfiler
T1 sequence (Q96PF2 1-358): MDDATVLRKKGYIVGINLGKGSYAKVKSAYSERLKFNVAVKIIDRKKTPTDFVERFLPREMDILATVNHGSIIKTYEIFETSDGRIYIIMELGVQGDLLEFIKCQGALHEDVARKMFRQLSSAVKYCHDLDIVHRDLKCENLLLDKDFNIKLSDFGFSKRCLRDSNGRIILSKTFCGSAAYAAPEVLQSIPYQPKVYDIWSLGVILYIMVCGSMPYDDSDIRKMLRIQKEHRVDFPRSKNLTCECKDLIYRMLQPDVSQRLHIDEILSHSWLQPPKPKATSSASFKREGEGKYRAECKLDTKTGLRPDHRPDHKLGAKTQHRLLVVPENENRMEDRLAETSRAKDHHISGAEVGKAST

ARK5(h) = biological target: T2, ARK5(h) (Homo sapiens, UniProt O60285)
T2 construct: purchased Millipore KinaseProfiler
T2 sequence (O60285 1-661): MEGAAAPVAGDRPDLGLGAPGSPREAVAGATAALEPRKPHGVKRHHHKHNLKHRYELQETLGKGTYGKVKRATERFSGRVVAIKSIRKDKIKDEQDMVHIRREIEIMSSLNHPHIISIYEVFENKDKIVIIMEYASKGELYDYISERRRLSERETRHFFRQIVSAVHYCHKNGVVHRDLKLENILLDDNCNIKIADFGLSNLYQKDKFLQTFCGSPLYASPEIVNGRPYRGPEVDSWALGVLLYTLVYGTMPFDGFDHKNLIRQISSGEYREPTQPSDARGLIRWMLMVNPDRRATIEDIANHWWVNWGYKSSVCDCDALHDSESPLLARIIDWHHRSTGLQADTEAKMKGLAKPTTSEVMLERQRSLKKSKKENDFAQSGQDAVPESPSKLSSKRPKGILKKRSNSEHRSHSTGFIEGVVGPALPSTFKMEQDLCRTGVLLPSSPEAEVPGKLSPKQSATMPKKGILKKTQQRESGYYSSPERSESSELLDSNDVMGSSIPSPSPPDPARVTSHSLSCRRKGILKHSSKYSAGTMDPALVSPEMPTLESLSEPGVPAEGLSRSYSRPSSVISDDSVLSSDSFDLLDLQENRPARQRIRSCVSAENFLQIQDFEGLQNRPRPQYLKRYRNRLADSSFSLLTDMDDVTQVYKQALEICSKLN

HIPK1(h) = biological target: T3, HIPK1(h) (Homo sapiens, UniProt Q86Z02)
T3 construct: purchased Millipore KinaseProfiler
T3 sequence (Q86Z02 whole entry): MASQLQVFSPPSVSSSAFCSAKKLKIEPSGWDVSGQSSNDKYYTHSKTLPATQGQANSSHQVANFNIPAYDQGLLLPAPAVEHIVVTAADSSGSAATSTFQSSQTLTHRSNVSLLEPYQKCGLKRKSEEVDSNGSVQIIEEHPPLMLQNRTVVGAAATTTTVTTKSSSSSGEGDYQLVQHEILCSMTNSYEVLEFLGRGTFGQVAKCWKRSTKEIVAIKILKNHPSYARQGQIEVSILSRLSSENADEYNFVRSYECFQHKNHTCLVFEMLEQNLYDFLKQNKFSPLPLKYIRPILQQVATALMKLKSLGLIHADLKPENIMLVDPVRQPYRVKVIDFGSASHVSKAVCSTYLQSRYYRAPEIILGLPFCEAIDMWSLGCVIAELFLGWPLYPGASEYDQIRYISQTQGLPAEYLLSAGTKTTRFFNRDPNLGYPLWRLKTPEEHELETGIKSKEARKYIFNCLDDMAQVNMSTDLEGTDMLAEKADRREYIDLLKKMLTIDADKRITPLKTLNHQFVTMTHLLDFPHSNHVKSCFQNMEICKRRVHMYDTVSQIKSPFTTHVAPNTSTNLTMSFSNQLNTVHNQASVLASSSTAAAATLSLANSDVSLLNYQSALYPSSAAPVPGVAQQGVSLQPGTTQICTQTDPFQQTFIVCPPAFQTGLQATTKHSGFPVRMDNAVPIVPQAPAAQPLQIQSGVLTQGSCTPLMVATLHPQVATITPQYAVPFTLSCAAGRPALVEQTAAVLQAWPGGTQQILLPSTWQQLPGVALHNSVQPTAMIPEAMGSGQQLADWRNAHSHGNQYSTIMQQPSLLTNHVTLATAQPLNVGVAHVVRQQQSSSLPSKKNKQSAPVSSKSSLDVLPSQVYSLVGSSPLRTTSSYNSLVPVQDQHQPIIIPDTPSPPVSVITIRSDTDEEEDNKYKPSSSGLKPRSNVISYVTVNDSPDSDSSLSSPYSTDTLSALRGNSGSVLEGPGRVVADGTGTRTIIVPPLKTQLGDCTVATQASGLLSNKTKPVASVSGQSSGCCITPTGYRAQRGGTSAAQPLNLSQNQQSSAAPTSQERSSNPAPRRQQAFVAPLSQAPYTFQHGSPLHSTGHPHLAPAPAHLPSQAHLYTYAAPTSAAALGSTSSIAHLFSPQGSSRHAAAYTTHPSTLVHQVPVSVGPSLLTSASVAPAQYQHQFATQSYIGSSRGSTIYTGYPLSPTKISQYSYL

Mer(h) = biological target: T4, Mer(h) (Homo sapiens, UniProt Q12866)
T4 construct: purchased Millipore KinaseProfiler
T4 sequence (Q12866 21-999): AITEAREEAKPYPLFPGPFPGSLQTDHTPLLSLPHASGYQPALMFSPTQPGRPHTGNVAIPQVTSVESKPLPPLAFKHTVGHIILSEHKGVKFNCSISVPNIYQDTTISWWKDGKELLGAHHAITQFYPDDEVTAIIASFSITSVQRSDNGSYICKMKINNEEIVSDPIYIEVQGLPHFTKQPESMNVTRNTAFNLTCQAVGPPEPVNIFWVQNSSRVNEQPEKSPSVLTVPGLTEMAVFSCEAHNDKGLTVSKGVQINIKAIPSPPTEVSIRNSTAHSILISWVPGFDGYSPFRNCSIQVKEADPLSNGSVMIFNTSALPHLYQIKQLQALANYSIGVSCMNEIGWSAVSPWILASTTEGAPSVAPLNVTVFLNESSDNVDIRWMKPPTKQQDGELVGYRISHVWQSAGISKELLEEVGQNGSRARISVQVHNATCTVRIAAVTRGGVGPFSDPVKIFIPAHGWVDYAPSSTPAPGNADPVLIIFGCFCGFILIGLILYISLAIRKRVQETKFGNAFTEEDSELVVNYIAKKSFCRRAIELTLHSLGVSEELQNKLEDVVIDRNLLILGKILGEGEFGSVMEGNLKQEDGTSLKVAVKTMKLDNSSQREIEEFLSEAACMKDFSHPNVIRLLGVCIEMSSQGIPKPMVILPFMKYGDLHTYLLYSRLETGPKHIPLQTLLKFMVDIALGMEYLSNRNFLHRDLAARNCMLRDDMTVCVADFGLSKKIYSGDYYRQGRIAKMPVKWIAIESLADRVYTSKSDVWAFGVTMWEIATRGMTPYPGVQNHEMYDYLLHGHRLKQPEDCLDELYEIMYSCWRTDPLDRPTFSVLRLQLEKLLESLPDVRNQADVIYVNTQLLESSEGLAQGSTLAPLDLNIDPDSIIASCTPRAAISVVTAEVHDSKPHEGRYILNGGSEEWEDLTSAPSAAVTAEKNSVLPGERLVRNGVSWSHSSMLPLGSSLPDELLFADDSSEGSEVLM

Ret(V804M)(h) = biological target: T5, Ret(V804M)(h) (Homo sapiens, UniProt P07949, V804M)
T5 construct: purchased Millipore KinaseProfiler
T5 sequence (P07949 29-1114 V804M): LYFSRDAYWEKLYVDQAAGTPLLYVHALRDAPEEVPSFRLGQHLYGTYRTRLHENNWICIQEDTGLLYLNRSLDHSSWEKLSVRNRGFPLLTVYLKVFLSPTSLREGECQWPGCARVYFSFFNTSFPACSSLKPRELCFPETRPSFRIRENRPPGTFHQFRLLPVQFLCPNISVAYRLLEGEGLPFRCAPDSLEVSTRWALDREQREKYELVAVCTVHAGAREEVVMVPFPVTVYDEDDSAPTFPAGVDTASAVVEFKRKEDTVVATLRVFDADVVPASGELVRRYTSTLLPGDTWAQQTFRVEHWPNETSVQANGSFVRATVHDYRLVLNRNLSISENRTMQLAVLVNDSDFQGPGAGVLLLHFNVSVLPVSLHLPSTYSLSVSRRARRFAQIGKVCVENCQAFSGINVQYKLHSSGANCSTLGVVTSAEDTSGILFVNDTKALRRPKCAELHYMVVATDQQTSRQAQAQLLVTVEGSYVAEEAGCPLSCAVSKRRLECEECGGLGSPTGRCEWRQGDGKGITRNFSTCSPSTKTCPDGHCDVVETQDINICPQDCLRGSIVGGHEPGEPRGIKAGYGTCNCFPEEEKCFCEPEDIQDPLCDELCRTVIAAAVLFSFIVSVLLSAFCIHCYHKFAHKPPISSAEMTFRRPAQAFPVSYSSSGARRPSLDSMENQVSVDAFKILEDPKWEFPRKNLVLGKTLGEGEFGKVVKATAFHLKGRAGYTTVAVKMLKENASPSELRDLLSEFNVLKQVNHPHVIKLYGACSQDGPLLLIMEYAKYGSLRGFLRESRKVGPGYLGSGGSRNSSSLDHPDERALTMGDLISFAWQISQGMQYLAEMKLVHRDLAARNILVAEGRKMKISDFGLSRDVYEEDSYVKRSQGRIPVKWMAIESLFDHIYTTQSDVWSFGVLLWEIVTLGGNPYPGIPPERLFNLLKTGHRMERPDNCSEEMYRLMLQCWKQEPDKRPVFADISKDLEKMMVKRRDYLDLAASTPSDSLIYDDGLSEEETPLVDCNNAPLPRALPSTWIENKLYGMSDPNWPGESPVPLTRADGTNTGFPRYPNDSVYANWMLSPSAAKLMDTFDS

Work on Cn1ncc(Cl)c1-c1cc(C(=O)N[C@H](CN)Cc2cccc(F)c2)sc1Cl [GSK2110183] yielded an inhibition at 0.5 µM (TSSK2(h)) of 4%, an inhibition at 10 µM (TSSK2(h)) of 44% and an inhibition at 0.5 µM (ARK5(h)) of -6%. It also gave an inhibition at 10 µM (ARK5(h)) of 9%, an inhibition at 0.5 µM (HIPK1(h)) of 9% and an inhibition at 10 µM (HIPK1(h)) of 72%. It also gave an inhibition at 0.5 µM (Mer(h)) of 2%, an inhibition at 10 µM (Mer(h)) of 65% and an inhibition at 0.5 µM (Ret(V804M)(h)) of 5%. It also gave an inhibition at 10 µM (Ret(V804M)(h)) of 26%.
Work on Cn1ncc(Cl)c1-c1cc(C(=O)N[C@H](CN)Cc2ccc(F)c(F)c2)oc1Cl [GSK2141795] yielded an inhibition at 0.5 µM (TSSK2(h); 0.5 µM, read-out: % Inhibition) of 7%, an inhibition at 10 µM (TSSK2(h); 10 µM, read-out: % Inhibition) of 53% and an inhibition at 0.5 µM (ARK5(h); 0.5 µM, read-out: % Inhibition) of -5%. For the same compound, the inhibition at 10 µM (ARK5(h); 10 µM, read-out: % Inhibition) was 18%, the inhibition at 0.5 µM (HIPK1(h); 0.5 µM, read-out: % Inhibition) was 2% and the inhibition at 10 µM (HIPK1(h); 10 µM, read-out: % Inhibition) was 62%. The inhibition at 0.5 µM (Mer(h); 0.5 µM, read-out: % Inhibition) was 10%, the inhibition at 10 µM (Mer(h); 10 µM, read-out: % Inhibition) was 63% and the inhibition at 0.5 µM (Ret(V804M)(h); 0.5 µM, read-out: % Inhibition) was -2%. The inhibition at 10 µM (Ret(V804M)(h); 10 µM, read-out: % Inhibition) was 25%.
